The values that follow come from a melting point compilation (Tetko et al.; mined from patent text by program, amines drawn as free bases though some values may be those of a salt).

Regarding `CC(C)C(NC(=O)OCc1csc(N2CCCC2)n1)C(=O)NC(Cc1ccccc1)CC(O)C(Cc1ccccc1)NC(=O)OCc1cncs1` (stereo unspecified), the melting point lay in the range of 146 to 148 °C.

In the case of `CC(C)c1nn(-c2ccc(C(F)(F)F)cn2)cc1CCCOc1cc(CCC(=O)O)n(-c2ccccc2)n1`, the melting point lay in the range of 139 to 140 °C.

On to `Cc1[nH]c(Cl)c(C#N)c1SC(F)(Cl)Cl`, for which the melting point amounted to 187 °C.

The compound `CCOCn1nccc1C(=O)c1ccc(OCC(=O)O)c(Cl)c1Cl` showed a melting point of 148 to 149 °C.

`Cc1ccc2c(N)c(Cl)ccc2n1` had a melting point of 196 to 197 °C.

`CN1CC(C#CC2CC2)(C(F)(F)F)c2cc(Cl)ccc2NC1=O` (stereo unspecified) gave a melting point of 177 to 178 °C.

`CC(CNc1cccc(C(F)(F)F)c1)Nc1cccc(C(F)(F)F)c1` (stereo unspecified) returned a melting point of 116 to 120 °C.

Turning to `COc1ccccc1-c1cccc2c1OC(COS(=O)(=O)c1ccc(C)cc1)C2` (stereo unspecified), the melting point is 100 to 103 °C.

In turn, `COc1cc(Nc2c(C#N)cnc3cc(-c4coc(C=O)c4)c(OC)cc23)c(Cl)cc1Cl` yielded a melting point of 238 to 241 °C.

The compound `Cc1nc(NC(=O)c2ccc(Cl)c(Cl)c2)sc1C(=O)NCc1ccccc1` came in with a melting point of 212 to 214 °C.

`N#Cc1cnc2cc(-c3ccc(CN4CCOCC4)cc3)sc2c1Nc1ccc(Oc2ccccc2)cc1` displayed a melting point of 254 to 256 °C.

Consider `N#Cc1ccc2c(c1)C(=O)CC2`, for which the melting point came to 109 °C.

Turning to `COc1cc2c(Cl)c(C#N)cnc2cc1N1CCN(C)CC1`, the melting point fell in the range of 177 to 179 °C.

Turning to `CC(C)(C)N1Sc2ccccc2C1O` (stereo unspecified), the melting point was in the range of 114 to 116 °C.

Regarding `COCN(c1cccc2cc(C(=O)/N=C/N(C)C)n(COC)c12)S(=O)(=O)c1cccs1`, the melting point lay within 146 to 147 °C.

The compound `CC(C)(C)OC(=O)N1C[C@@H]2[C@H](C1)C(F)(F)CCC2(c1ccccc1)c1ccccc1` (racemic) yielded a melting point of 162 °C.

With `Cc1cc(Oc2cc(F)ccc2[N+](=O)[O-])n[nH]1`, the melting point lay within 95 to 97 °C.

Turning to `COC(=O)Cc1ccc(OCc2ccc(OCc3nc(-c4ccccc4)oc3C)cc2)cc1`, the melting point fell in the range of 93 to 94 °C.

`OCc1csc(NCc2ccccc2)n1` gave a melting point of 85 to 86.5 °C.

For the compound `CCCCCS(=O)(=O)NC(=O)CCc1cc(OCc2nnc(C)o2)nn1Cc1ccc(Cl)cc1Cl`, the melting point is 156 to 158 °C.

In turn, `CCN(CC)C(=O)Oc1ccc2ccccc2c1` yielded a melting point of 51 to 53 °C.

Turning to `CN(C)CCN(c1ccc(N)cc1)S(C)(=O)=O`, the melting point was in the range of 147 to 148 °C.

With `CCOC(=O)C=Cc1ccc(N[C@@H](CCC(N)=O)C(=O)O)cc1`, the melting point fell in the range of 192 to 193 °C.

Turning to `C[C@@H]1CCC[C@H](C)N1CCNc1ccnc2cc(Cl)ccc12`, the melting point lay within 138 to 139 °C.

For `CCCCc1c(/C=C/C(=O)O)cc(OC)c2ccc(OC)cc12`, the melting point was 174 to 176 °C.

`C=C(CCC(C)C1CCC2C3=C(C(=O)CC21C)C1(C)CCC(=O)C(C)C1CC3O)C(C)C(=O)O` (stereo unspecified) showed a melting point of 196 to 198 °C.

Compound `COc1ccc(CC(C(=O)n2ccnc2)C(C)(C)C)cc1` (stereo unspecified) came in with a melting point of 89.5 to 91 °C.

Regarding `CN1CCC(CNc2ncc3cc(-c4ccccc4Cl)c(=O)[nH]c3n2)CC1`, the melting point is 213 to 220 °C.

`CCOP(=O)(/C=C/c1cn(-c2ccccc2)nc1OCc1ccc(OCc2nc(-c3cccc(OCC(=O)O)c3)oc2C)c(OC)c1)OCC` gave a melting point of 166 to 168 °C.

Regarding `COCCOc1ccc(NC=C(C#N)C(=O)Nc2cc(OC)c(Cl)cc2Cl)cc1I`, the melting point lay within 209 to 210 °C.

In turn, `CC(C)(C)C(NC(=O)c1ccc(Cl)cc1)Nc1c(Nc2ccccn2)c(=O)c1=O` (stereo unspecified) had a melting point of 246 to 248 °C.

For the compound `COc1cc(NC(=S)NC(=O)/C=C/c2ccco2)ccc1-c1cc2ccccc2oc1=O`, the melting point lay in the range of 227 to 230 °C.

Turning to `COc1cc(OC)cc(-c2ncn(-c3cc(OC)c(OC)c(OC)c3)c2-c2ccc(OC)c(F)c2)c1`, the melting point fell in the range of 157 to 158 °C.

As to `O=C1N(Cc2ncccc2Cl)c2ccccc2C12COc1cc3c(cc12)OCCO3` (stereo unspecified), the melting point fell in the range of 176 to 178 °C.

`O=c1[nH]cnc2cc(Cl)c(Oc3ccc(Cl)cc3)cc12` had a melting point of 250 to 252 °C.

Consider `CN(C)S(=O)(=O)c1ccc(Oc2ccc(S(=O)(=O)c3ccccc3)cc2)cc1`, for which the melting point was 99 to 100 °C.

As to `O=C(Nc1nccs1)c1cccc(-c2ccc3c(c2)C(Nc2ccc(Cl)cc2Cl)CO3)c1` (stereo unspecified), the melting point is 221 to 222 °C.

In turn, `O=C(c1cc(Cl)ccc1NC(c1ccccc1)(c1ccccc1)c1ccccc1)C(F)(F)F` came in with a melting point of 165 to 167 °C.

Compound `COc1cc(C)ccc1OCc1ccccc1` yielded a melting point of 38 to 39 °C.

`CC1(C)Cc2nc(N3CCOc4ccc(Br)cc43)sc2C(=O)N1` displayed a melting point of 155 °C.

`Cc1cc(Nc2ccc(F)cc2)nc(Nc2ccc(S(=O)(=O)N(C)C3CCN(Cc4nccs4)CC3)cc2)n1` yielded a melting point of 220 °C.

The compound `COc1ccc(-c2nc(S(=O)c3ccc(C)cc3)n(C3CCCCO3)c2-c2ccc(OC)cc2)cc1` (stereo unspecified) registered a melting point of 162 to 164 °C.

`CC1(C)C(=O)Nc2ccc(-c3cc(F)cc(C#N)c3)cc21` came in with a melting point of 231 to 232 °C.

As to `COCCOCOc1c(Cl)cc(C=O)c(Cl)c1OCOCCOC`, the melting point came out at 50 °C.

With `Nc1nc2c(s1)CCN(C/C=C\c1cccc3c1CC(=O)N3)CC2`, the melting point was in the range of 192 to 195 °C.

For the compound `CSc1ccc(-c2csc3ccc(C(=O)NN)cc23)cc1`, the melting point is 195 to 196 °C.

The compound `CCOCc1nnc(C)n1-c1ccc(Cl)cc1C(=O)O` registered a melting point of 173 to 176 °C.

Compound `CSc1cc(C(C)(C)C)nn1C(=O)Cl` registered a melting point of 64 to 66 °C.

For the compound `NC(=O)/C=C1\CC(O)c2ccc(F)cc21` (stereo unspecified), the melting point was in the range of 166 to 168 °C.

Consider `COc1ccc(C2CCN(C(=O)C(=O)O)CC2)cc1OC1CCCC1`, for which the melting point was in the range of 112 to 113 °C.

Turning to `CC1=C(c2ccc(C#N)c3ccccc23)CCC1O` (stereo unspecified), the melting point is 113 to 114 °C.

The compound `Cc1cc(C)cc(-c2cccc3ccccc23)c1` came in with a melting point of 68 to 70 °C.

Compound `O=C(O)c1c[nH]c(=S)n1C1Cc2cc(F)cc(F)c2C1` (stereo unspecified) had a melting point of 230 to 232 °C.

Regarding `COc1ccc(-c2nc(S(=O)(=O)c3ccccc3)[nH]c2-c2ccc(OC)cc2)cc1`, the melting point came to 106 °C.

On to `C[C@@H](CC(=O)O)OC(=O)OCc1ccc([N+](=O)[O-])cc1`, for which the melting point was 78 to 81 °C.

For the compound `CSc1ncc(C(=O)Cc2c(Cl)cncc2Cl)cc1OC(C)C`, the melting point is 124 to 125 °C.

In turn, `CC#CNc1c([N+](=O)[O-])cc(C(F)(F)F)c(Cl)c1[N+](=O)[O-]` yielded a melting point of 86 to 87 °C.

`Cc1cccc(NC(=O)Cn2c3c(c4c(Cl)c(Cl)ccc42)CCN(C(=O)OC(C)(C)C)CC3)c1C` yielded a melting point of 232 to 233 °C.

In turn, `COc1ccc(S(=O)(=O)Nc2ccc(OC)nc2Nc2ccccc2)cc1` returned a melting point of 187 to 188 °C.

Turning to `COC(=O)CC1=C(C)C(=Cc2ccc(S(=O)(=O)NC(C)=O)cc2)c2ccc(OC)cc21`, the melting point lay in the range of 172 to 174 °C.

For the compound `CCOC(=O)N(C)C1CCc2c([nH]c3ccccc23)C1` (stereo unspecified), the melting point was in the range of 167 to 168 °C.

Consider `N#CNC(=Nc1ccncc1)NCCOc1ccc(Cl)cc1`, for which the melting point fell in the range of 174 to 177 °C.

For `COC(=O)C[C@@H](N)c1ccc(NC(=O)Cc2ccc(NC(=O)Nc3ccccc3C)c(OC)c2)cc1`, the melting point lay in the range of 189 to 191 °C.

In the case of `CCCCCCS(=O)(=O)c1nn2c(=O)c(Cl)c(F)nc2s1`, the melting point fell in the range of 185 to 188 °C.

Regarding `O=C(CCN1CCCC1)Nc1ccc2nc3ccc(NC(=O)CCN4CCCC4)cc3c(Cl)c2c1`, the melting point was above 320 °C.

`CCN(CC)CC1CCCCN1CC(=O)N1c2cc(Cl)ccc2C(=O)Nc2cccnc21` (stereo unspecified) had a melting point of 168 to 169 °C.

`O=C(N[C@H]1CCC(=O)N2CCC[C@@H](C(=O)O)N2C1=O)OCc1ccccc1`: the melting point is 60 to 100 °C.

Take `CC(C)(C)c1cc(SC2(Sc3cc(C(C)(C)C)c(O)c(C(C)(C)C)c3)CCCCC2)cc(C(C)(C)C)c1O`: the melting point was 195 to 197 °C.

`Cc1cccc(Oc2cccc(C#CC(C)N(O)C(N)=O)c2)n1` (stereo unspecified) gave a melting point of 133 to 135 °C.

Compound `CN1CCN(c2cccc3ccc(NC(=O)c4ccc(Cl)cc4)cc23)CC1` yielded a melting point of 174 to 175 °C.

As for `CN1CC(CNC(=N)NC(=O)c2cncc(Br)c2)CC2c3cccc4c3c(cn4C)CC21` (stereo unspecified), the melting point was in the range of 140 to 142 °C.

On to `Cn1c(CCl)cnc1[N+](=O)[O-]`, for which the melting point was 100 to 101 °C.

For `O=C(Cc1cccc(C(F)(F)F)c1)N1CCc2cc3c(cc2CC1)OCO3`, the melting point lay within 102 to 104 °C.

The compound `CCn1cccc1Cc1cccc(NC(N)=O)c1` returned a melting point of 56 to 58 °C.

The compound `CCOC(=O)CC12C(OS(=O)(=O)C(F)(F)F)=CC(C(C)CCCC(C)C)C1(C)CCC1=C2CCC2CC(OC(=O)c3ccccc3)CCC12C` (stereo unspecified) yielded a melting point of 132 to 134 °C.

As for `CCCCCCCCCCCCCCCCCC(=O)Nc1ccn(C2OC(CO)C(O)C2O)c(=O)n1` (stereo unspecified), the melting point lay in the range of 147 to 151 °C.

Take `CC(C)(C)C(=O)c1c[nH]c2ncc(-c3cccc(N)c3)nc12`: the melting point was in the range of 239 to 241 °C.

For the compound `O=S1(=O)c2cccc3cccc(c23)N1CCN1CCC(CCn2ccc3ccccc32)CC1`, the melting point was found to be 152 °C.

`CC(C)(C)OC1CCCC2C(=O)CCCC12C` (stereo unspecified) came in with a melting point of 78 to 79 °C.

On to `Cc1ccc(-c2cc(C(=O)/C=C/c3ccc(C(=O)O)cc3)cc3c2C(C)(C)CCC3(C)C)cc1`, for which the melting point worked out at 242 °C.

As to `COc1ccc(-c2nc(CCCCCC(C)(C)c3nnn[nH]3)oc2-c2ccc(OC)cc2)cc1`, the melting point was 82 °C.

`Cc1cc(C)nc(N(C(=O)Cl)c2cc(Cl)ccc2Cl)n1` gave a melting point of 121 to 123 °C.

`CC(C)(C)c1cc(C=C2SC(=S)NC2=O)cc(C(C)(C)C)c1O`: the melting point worked out at 260 °C.

Compound `FC(F)(F)c1nc(Cl)c2ccccc2n1` had a melting point of 62 to 63.5 °C.

For `COc1ccc(-c2nc(SCCCCCc3nc4ccccc4[nH]3)[nH]c2-c2ccc(OC)cc2)cc1`, the melting point fell in the range of 85 to 86 °C.

`CCCCCCCCCCCCCCCCCCOc1ccc(OCCCOc2ccc(OCc3ccccc3)cc2)c(C(=O)O)c1`: the melting point was in the range of 92 to 95 °C.
